Each structure is given as a SMILES string. The source made the active and inactive calls. No rule for the calls is given here.

This assay can be described thus: E-selectin induction blockers, endothelial cells – imaging, retest plus dose response, cell count, confirmation (AID 1288).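 Also: 0% = stimulated vehicle wells and 100% = unstimulated vehicle wells.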 The settings on record: human endothelial cells, TNFa-induced E-selectin, imaging; at 2 µM; active compounds read high.
As usually defined, the inhibition is the change of the read-out against control, counted positive when it falls. As to `CCOc1ccc(OCC)c(NC(=O)CN2CCN(c3cccc(C)c3)CC2)c1`, the inhibition is -3.01% (inactive).
Then `CCS(=O)(=O)NCC(c1ccco1)N1CCN(c2ccccc2)CC1` (stereo not drawn), with 0.44% (inactive); and `c1ccc(-n2c(Sc3cnccn3)nnc2-c2cccs2)cc1`, with 8.66% (inactive).
On to `CCC(Sc1nc2c(c(=O)n1CC)SC(C)C2)C(=O)OC` (stereo not drawn), for which the inhibition is 6.81% (inactive).
Consider `Cc1noc(C)c1S(=O)(=O)Nc1ccc(C(=O)NC2CCCCC2C)cc1` (stereo not drawn), for which the inhibition is 22.8% (inactive).
Take `COc1ccccc1-c1nc(-c2ccc(C)nc2OC)no1`: the inhibition was 0.65% (inactive).
For `CC(OC(=O)CCN1C(=O)c2cccc([N+](=O)[O-])c2C1=O)C(=O)Nc1cc(Cl)cc(Cl)c1` (stereo not drawn), the inhibition is 36.2% (inactive).
As to `O=C1NCCCc2c1oc1cc(Br)c(O)c(Br)c21`, the inhibition was 15.8% (inactive).
In the case of `Cc1ccc(CNc2ccc(S(=O)(=O)N3CCOCC3)cc2[N+](=O)[O-])cc1`, the inhibition was 0.77% (inactive).
Then `CCc1ccc(CN(C)C(=O)c2cc(COc3c(F)cccc3F)on2)cc1`, with 13% (inactive); and `O=C(/C=C/c1ccc2c(c1)OCO2)Nc1nc2ccccc2s1`, with 16.2% (inactive).
Turning to `Cc1cc(C(=O)CN2C(=O)NC(c3ccccc3)(c3ccccc3)C2=O)c(C)n1Cc1ccco1`, the inhibition was -3.9% (inactive).
Turning to `CCCCn1c2nc3ccccc3nc2c2c(=O)n(-c3ccccc3)cnc21`, the inhibition is -1.49% (inactive).
Turning to `COc1ccc(-n2nc3c(c2NC(=O)c2cc(Br)ccc2Cl)CS(=O)C3)cc1` (stereo not drawn), the inhibition was -1.7% (inactive).
As for `CCN(CC)c1ccc(NC(=O)COC(=O)/C=C/c2nc3ccccc3s2)cc1`, the inhibition is 15.5% (inactive).
For `COc1ccccc1C(=O)NC(CCSC)C(=O)OCC(=O)NC(=O)NCc1ccco1` (stereo not drawn), the inhibition is 28% (inactive).
For the compound `Cc1cc(-n2nc(C)cc2C)nc(NS(=O)(=O)c2ccccc2)n1`, the inhibition was 14.8% (inactive).
Regarding `Cc1ccc(N2C(=O)[C@@H]3C(C(=O)CCN4C(=O)c5ccccc5C4=O)=NN[C@@H]3C2=O)cc1`, the inhibition was 6.74% (inactive).
Turning to `CC1=C(C(=O)N2CCC3(CC2)OCCO3)C2(CCC(C)CC2)OC1=O` (stereo not drawn), the inhibition was 6.34% (inactive).
Regarding `COc1ccccc1N1CCN(c2cc(N3CCCC3)nc(C)n2)CC1`, the inhibition is -3.57% (inactive).
Regarding `O=C(Nc1ccc(Cl)cc1)c1cc2nc(-c3ccco3)cc(C(F)(F)F)n2n1`, the inhibition is 14.3% (inactive).
As for `CCn1c(SCC(=O)Nc2ccccc2)nnc1C1CCCCC1`, the inhibition was 2.46% (inactive).
Regarding `c1csc(C(c2nnnn2C2CCCC2)N2CCCC3(CCCCC3)C2)c1` (stereo not drawn), the inhibition is -3.21% (inactive).
For `N#CCc1c(C#N)c(N)nc(N2CCN(c3ccc(F)cc3)CC2)c1C#N`, the inhibition was 4.37% (inactive).
With `CC(C(=O)O)C1SC(=O)NC1=O` (stereo not drawn), the inhibition was 12.7% (inactive).
In the case of `O=C(/C=C/c1ccc(F)cc1)NC(=S)Nc1ccccc1C(=O)NC1CCCCC1`, the inhibition was 2.9% (inactive).
`Cc1ccc(C)n1NC(=O)c1cccs1`: the inhibition was 7.45% (inactive).
For the compound `CC1(C)NC(=O)N(CC(O)COc2cc3ccccc3cc2C(=O)N2CCCCC2)C1=O` (stereo not drawn), the inhibition is 7% (inactive).
In the case of `Cn1c(=O)[nH]c(=O)c2c1nc(CN1CCN(Cc3ccccc3)CC1)n2CC(N)=O`, the inhibition is 8.32% (inactive).
For the compound `COc1ccc(S(=O)(=O)Cc2ccc(C(=O)N3CCOCC3)o2)cc1`, the inhibition was 26.4% (inactive).
As to `CC(C)(C)NC(=O)NC(=O)CSc1ncn[nH]1`, the inhibition is 6.43% (inactive).
Take `O=C(c1cccs1)N(C(=O)c1cccs1)c1ccc(Br)cn1`: the inhibition was 15.4% (inactive).
In the case of `CCOC(=O)c1c(NC(C)=O)sc2c(O)cccc12`, the inhibition was 35.6% (inactive).
As for `COc1ccc(C(=O)/C=C/Nc2ccc([N+](=O)[O-])cc2C)c(OC)c1`, the inhibition is 26.8% (inactive).
As to `COCCN1C(=O)N(c2cccc(C)c2)C(=O)C1CC(=O)Nc1ccc(F)cc1` (stereo not drawn), the inhibition is 12% (inactive).
Take `CN(C)S(=O)(=O)c1cc(NC(=O)CSc2nn(-c3ccc(Cl)cc3)c(=S)s2)ccc1Cl`: the inhibition is -2.75% (inactive).
As for `Cc1ccc(/C=C2\SC(N)=NC2=O)s1`, the inhibition is 1.87% (inactive).
Take `Cc1ccc(NC(=O)N2CCC(C(=O)NCCC3=CCCCC3)CC2)cc1`: the inhibition is 11.6% (inactive).
Turning to `Cn1c(SCc2ccc(Br)cc2)nnc1-c1ccncc1`, the inhibition was 0.83% (inactive).
Then `Cc1oc2c(C)c(O)ccc2c(=O)c1-c1cnn(-c2ccccc2)c1`, with -7.41% (inactive).
As to `CCN(CC)CCNC(=O)CS(=O)Cc1nc(-c2ccccc2Cl)oc1C` (stereo not drawn), the inhibition is 3.34% (inactive).
Consider `CCc1cc(OCCOCCN(C)C)ccc1Cl`, for which the inhibition is 8.67% (inactive).
For `CCOC(=O)CSc1nc2cc(OC)ccc2cc1C#N`, the inhibition is 11.6% (inactive).
Take `C=CCNC(=S)NNC(=O)c1ccc(Br)cc1`: the inhibition is 38.3% (inactive).
For the compound `Cc1ccc(NC(=O)c2ccc(OC(=O)CCN3C(=O)c4ccccc4C3=O)cc2)cc1`, the inhibition is 42.6% (inactive).
As to `COc1cc(C2C(C#N)=C(N)Oc3c2oc(CO)cc3=O)cc(OC)c1OC` (stereo not drawn), the inhibition was 10.9% (inactive).
Then `CCOC(=O)C[n+]1c(C)sc2ccc(OC)cc21`, with 5.31% (inactive); and `CCOc1cc(-c2nn3cnnc3s2)cc(OCC)c1OCC`, with 4.31% (inactive); and `CC(C)(CO)NCC(O)Cn1cc(C=O)c2ccccc21` (stereo not drawn), with -5.31% (inactive).
For the compound `Cn1cc(Cl)c(C(=O)NNC(=S)NCc2ccco2)n1`, the inhibition was 7.71% (inactive).
In the case of `O=C(N/N=C1/CCS(=O)(=O)c2ccc(F)cc21)c1ccccn1`, the inhibition was 8.24% (inactive).
For the compound `CC(C)n1c(SCC(=O)Nc2nc3c(s2)CCCC3)nc2c1c(=O)n(C)c(=O)n2C`, the inhibition is 3.36% (inactive).
As for `CCS(=O)(=O)N1CCCC(C(=O)NCc2cccc(OC)c2)C1` (stereo not drawn), the inhibition was 12.7% (inactive).
For `CCCn1nnc(NC(=O)c2cccc(OCC(C)C)c2)n1` the value was 27.2% (inactive).
On to `O=C(CCl)N1N=C(c2ccco2)CC1c1cccs1` (stereo not drawn), for which the inhibition was 26.9% (inactive).
In the case of `CCOc1ccc(N2CC(C(=O)NCCCN3CCOCC3)CC2=O)cc1` (stereo not drawn), the inhibition was 11.2% (inactive).
Turning to `Brc1ccc(C2=CC(c3cccs3)n3ncnc3N2)cc1` (stereo not drawn), the inhibition was 13.5% (inactive).
For `O=C(NC(=O)c1cccc(OC(F)(F)C(F)F)c1)OC1CCS(=O)(=O)C1` (stereo not drawn) the value was 22.5% (inactive); for `CN(c1ccc(C(=O)NCC2CCCO2)cc1)S(C)(=O)=O` (stereo not drawn), 6.07% (inactive); for `Cc1ccccc1-n1ccnc1SCC(=O)O`, 23% (inactive).
Then `N/C(Cc1cccc2ccccc12)=N\OC(=O)c1ccc2c(c1)OCO2`, with 6.4% (inactive).
In the case of `O=C(Cn1ncc2c(=O)oc3ccccc3c21)N1CCc2ccccc2C1`, the inhibition is 9.96% (inactive).
Turning to `CCC(C(=O)N1CCc2cc(OC)c(OC)cc2C1)c1ccccc1` (stereo not drawn), the inhibition was -0.78% (inactive).
With `CN1c2ccccc2C2(C)CCCC3=Cc4cccc([N+](=O)[O-])c4OC312` (stereo not drawn), the inhibition is 2.99% (inactive).
Regarding `O=c1[nH]cnc2cc(-c3ccccc3)sc12`, the inhibition is 7.67% (inactive).
For `COc1ccc(CNC(=O)C(CCSC)NS(=O)(=O)c2ccccc2F)cc1` (stereo not drawn) the value was 5.1% (inactive).
On to `COc1ccc(C(=O)C2(C)N(O)C(C)C(c3cccs3)=[N+]2[O-])cc1` (stereo not drawn), for which the inhibition was 9.94% (inactive).
Regarding `CC(C)C(C(=O)O)N1CCS(=O)(=O)CC1` (stereo not drawn), the inhibition was 7.68% (inactive).
For `O=C(NNc1nc2ccccc2s1)Nc1ccccc1` the value was 5.88% (inactive).
With `CC(=O)c1ccc(NC(=O)Nc2ccc([N+](=O)[O-])cc2C)cc1`, the inhibition is 48% (inactive).
On to `COc1ccc(S(=O)(=O)NCc2csc(-c3cccnc3)n2)cc1`, for which the inhibition is 4.07% (inactive).
For `CCOC(=O)c1cnc2ccc(C)cc2c1Nc1ccc(N2CCOCC2)cc1`, the inhibition is 5.86% (inactive).
`Cn1c(O)c(C(=N)COc2cccc(Cl)c2)c(=O)n(C)c1=O`: the inhibition was 18.8% (inactive).
For the compound `COc1ccc(N/C=C/C(=O)c2ccc(C)cc2)c([N+](=O)[O-])c1`, the inhibition was 17.3% (inactive).
`CCOc1cc2[nH]c(=O)n(CCCN3CCCC3=O)c(=O)c2cc1OCC`: the inhibition was 17% (inactive).
With `Cc1ccc(N)cc1S(=O)(=O)N(C)C`, the inhibition is 7.3% (inactive).
For `CCN1C(=O)/C(=C\c2cn(-c3ccccc3)nc2-c2cccnc2)SC1=S` the value was 28% (inactive); for `CC(C)(C)c1cc(OC(=O)c2ccncc2)ccc1O`, 7.95% (inactive).
With `C=CCn1c(O)c(C(C)=Nc2ccc(NC(C)=O)cc2)c(=O)[nH]c1=O`, the inhibition was 17.3% (inactive).
As for `c1ccc(Nc2nc3ccccc3n3cnnc23)cc1`, the inhibition is 6.89% (inactive).
For the compound `O=C(OCC1CC(c2ccccn2)=NO1)c1ccc(Br)cc1` (stereo not drawn), the inhibition is 9.31% (inactive).
As to `CCOC(=O)c1c(NC(=O)CSc2nnc(-c3ccccc3)n2CC)sc(C(C)=O)c1C`, the inhibition was 8.92% (inactive).
Turning to `COCCCNC(=O)CN1C(=O)c2ccccc2C1=O`, the inhibition is 5.47% (inactive).
As to `COc1cc(CN2CCN(c3ccc(C)cc3)CC2)cc([N+](=O)[O-])c1O`, the inhibition is 24.7% (inactive).
For `O=C(Oc1ccccc1N1C(=O)C2CC=CCC2C1=O)c1ccc(Br)cc1` (stereo not drawn) the value was 5.75% (inactive).
As for `COc1cccc(S(=O)(=O)Nc2ccc(C(=O)N3CCN(C(=O)c4ccco4)CC3)cc2)c1`, the inhibition is 31.3% (inactive).
Then `C=CCn1c(COc2ccccc2)nnc1SCC(=O)O`, with 11.9% (inactive); and `COc1ccccc1-n1c(=O)[nH]c2c(C(N)=O)nc(C3CCCCC3)nc21`, with 13.4% (inactive).

Source of the values: PubChem BioAssay AID1288 (Columbia University Molecular Screening Center, 2008).
